Data taken from US9540418B2, “Polypeptide specifically binding to rare earth nanoparticles and use thereof” (University of Science and Technology of China, priority 2012, dated 2017).

How the values were obtained:
[1] = Observation of binding form with UCN by TEM and SEM; details: TEM / SEM after washing off unbound
Excerpt: The binding forms of RE-1 short peptide and REOB-1 phage with UCN were observed using a transmission electron microscope. The excess unbound polypeptides and phages were washed off from the complex of RE-1 and UCN. The complex was stained with uranium acetate (pH 6.7), and placed on a copper mesh coated with carbon film. A transmission electron microscope TEM (200 kV) (JEM-2100F, JEOL, Japan) was used for observation and imaging (FIG. 5A and FIG. 5B).
The binding form of RE-1 peptide to UCN was observed under a scanning electron microscope. The excess unbound polypeptides were washed off from the complex of RE-1 and UCN. The complex was placed on a copper mesh. A scanning electron microscope SEM (15 kV) (JEOL JSM-6700F, JEOL, Japan) was used for observation and imaging (FIG. 5C).

[2] = Binding of FITC-RE-1 to UCP (time, concentration, pH, salt, temperature); details: 10 μg FITC-RE-1, 100 μg UCP
Procedure: 10 μg of FITC-RE-1 was incubated with 100 μg of UCP for different time periods (2 min, 10 min, 30 min, 120 min, and 720 min). Then, the amount of FITC-RE-1 fluorescent peptide binding to UCP was measured by using fluorescence spectrophotometer.
100 μg of UCP was incubated with FITC-RE-1 at various concentrations (1 μg, 5 μg, 10 μg, and 20 μg) for 1 hr. The excess and unbound peptides were washed off. The amount of FITC-RE-1 fluorescent peptide binding to UCP was measured by using fluorescence spectrophotometer.
(§1) 10 μg of FITC-RE-1 was incubated with 100 μg of UCP dissolved at different pH values (pH 3, 5, 7, 10) for 1 hr. The excess and unbound peptides were washed off. The amount of FITC-RE-1 fluorescent peptide binding to UCP was measured by using fluorescence spectrophotometer.
as §1, with “salt ion concentrations (0 M, 0.15 M, 0.3 M, and 0.5 M NaCl)” for “pH values (pH 3, 5, 7, 10)”
as §1, with “dissolved in water” for “dissolved”, “temperatures (25° C., 37° C., 55° C., and 80° C.)” for “pH values (pH 3, 5, 7, 10)”

[3] = Dissociation of FITC-RE-1 from UCN over time; assay type: binding; details: after 48 h, 37° C., shaking
Procedure: 250 μg FITC-RE-1 was thoroughly mixed with 500 μg UCN. The excess and unbound polypeptides were washed off. Then, the mixture was divided into five aliquots. The aliquots were gently shaked on a shaking table at 37° C. The amount of FITC-RE-1 dissociated in the supernatants was measured by using a fluorescence spectrophotometer at different time points (0 hr, 2 hr, 12 hr, 24 hr, and 48 hr).

[4] = Sedimentation / suspension time-dynamics curve of UCP (UV 500 nm); assay type: physicochemical; details: standing for 120 min; UCP with or without RE-1 coating
Procedure: 3 mg of UCN was mixed with 1.5 mg of RE-1 or its analogues RE-2, RE-3, or RE-5 as well as PEG, and the binding between them was performed according to a binding method. The excess and unbound RE-1 was washed off. The resultant precipitate was resuspended in 3 mL water, sonicated for 1 min, and then placed into a UV detection cell (X72053, Alpha Laboratories Ltd, UK). Observation was made using a UV spectrophotometer (DU-640, Beckman, USA) at an absorption wavelength of 500 nm for 120 min to obtain a time-dynamics curve.
The process described above was repeated except that 3 mg UCP and 500 μg RE-1 or its analogues RE-2, RE-3, RE-4, RE-5, RE-6, RE-7, RE-8, RE-9, or RE-10 and AP-1 were used. A time-dynamics curve was obtained.

HeLa cells = assay: Autophagosome formation in HeLa cells by transmission electron microscope; assay type: cell-based; details: 100 μg/mL UCN+RE-1 or UCP+RE-1, 24 hr
Procedure: HeLa cells were inoculated into a 24-well cell culturing plate at a density of about 3-5×10^4 cells/well, and cultured overnight for further use. At first, the medium was replaced with fresh DMEM medium, and then 100 μg/mL UCN, UCP, UCN+RE-1, or UCP+RE-1 was added. An equal volume of PBS was used as blank. After culturing for 24 hr, the cells were collected and in situ fixed with 2.5% glutaral-dimethyl arsine buffer (pH 7.4) at 4° C. for 1 hr, then fixed with 2% osmium tetroxide at room temperature for 1 hr, and then dehydrated with ethanol gradients. Then, the cell samples were embedded into epoxy resin (EPON812). The embedded cell samples were cut into ultrathin slices, which were stained with uranyl acetate and lead citrate, and observed and imaged under a transmission electron microscope (JEOL-1230, JEOL, Japan).

[5] = test system: LC3 type II in mice liver; assay: Western blotting of LC3 in mice livers after tail vein injection; assay type: in vivo; details: 300 μg (15 mg/kg) tail vein, 24 hr
Procedure: Western blotting is performed as follows: After an incubation of 24 h, the cells are collected and lysed with lysis buffer (purchased from Beyotime Biotechnology, China). The lysate is boiled in boiling water for 10 min, subjected to 15% SDS-PAGE, and then transferred to nylon membrane (purchased from Amersham Inc.) by a wet transfer. In the Western blotting, Anti-LC3 (Light Chain 3 Protein Antibody, purchased from Novus Inc., Catalog #: NB 100-2220) is used as primary antibody; GAPDH (purchased from Millipore Inc.) is used as internal reference; and Horseradish peroxidase (HRP) conjugated goat anti-rabbit IgG (H+L) (Goat Anti-Rabbit IgG (H+L), HRP Conjugate) (purchased from Promega Inc.) is used as secondary antibody.
(§2) Balb/c mice (purchased from SLAC Laboratory Animal (Shanghai, China), 6 weeks old, and weighed 20 g when used) were bred in a sterile housing, and then 300 μg (dosage: 15 mg/kg) UCN, UCN+PEG (containing 10 mg PEG), UCN+RE-1, UCP, UCP+RE-1, or UCP+AP-1 was injected through tail vein. An equal volume of normal saline was injected as a control. After 24 hr, the livers of the mice were removed and subjected to western blotting assay.

mice liver = assay: Liver damage in mice livers (HE staining); assay type: in vivo, Balb/c mice; details: UCP+RE-1 or UCP+AP-1, tail vein, 24 hr
Procedure: as §2
The mice livers obtained as described in Example 21 were in situ fixed with 2.5% glutaral-dimethyl arsine buffer (pH 7.4) at 4° C. for 1 hr, then fixed with 2% osmium tetroxide at room temperature for 1 hr, and then dehydrated with ethanol gradients. Then, the cell samples were embedded in paraffin. The embedded cell samples were cut into ultrathin slices, which were stained with HE (hematoxylin-eosin), and observed and imaged under fluorescence microscope.

## ACTARSPWICG [RE-1, RE-0 with terminal amino acids A and G added]
[1]
  binding form on the surface of UCN: form a stable peptide coating on the surface of UCN
[2]; 2 min
  binding to UCP at 2 min: 50%
[2]; 10 min
  binding to UCP at 10 min: almost binding saturation
[3]
  dissociation from UCN: less than 0.7%
[4]
  suspension / sedimentation of UCP in water: still in suspension
HeLa cells
  inhibition of autophagosome formation induced by UCN, UCP: significantly inhibited
[5]
  effect of RE-1 coating of UCN and UCP on LC3 type II in mice liver: significantly prevented the increase of LC3 type II
Mice liver
  effect of coating on liver damage induced by UCP: significantly reduced the level of the damages to livers
